Experiments:
[1] = molecular target: T1, Orexin/Hypocretin receptor type 1 (Homo sapiens) (UniProt O43613); assay: Antagonist activity at OX1 receptor (unknown origin) expressed in RD-HGA16 cells assessed as inhibition of orexin A-induced calcium mobilization by fluorometric imaging plate reader analysis; assay type: functional, cell-based
T1 sequence (whole entry): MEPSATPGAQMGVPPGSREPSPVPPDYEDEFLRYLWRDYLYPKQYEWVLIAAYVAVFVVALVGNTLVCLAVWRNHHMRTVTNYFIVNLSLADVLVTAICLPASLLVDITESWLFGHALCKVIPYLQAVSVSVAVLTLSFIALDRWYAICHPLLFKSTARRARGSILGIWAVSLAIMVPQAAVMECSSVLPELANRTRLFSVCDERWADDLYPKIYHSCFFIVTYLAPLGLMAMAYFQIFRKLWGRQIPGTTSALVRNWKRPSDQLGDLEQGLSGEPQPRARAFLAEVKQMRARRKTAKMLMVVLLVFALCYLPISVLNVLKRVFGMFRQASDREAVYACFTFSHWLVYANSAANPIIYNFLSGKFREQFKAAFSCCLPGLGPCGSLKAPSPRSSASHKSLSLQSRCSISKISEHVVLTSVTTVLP

[2] = molecular target: T2, Cannabinoid CB1 receptor/orexin receptor 1 complex (Homo sapiens) (UniProt P21554+O43613); conditions: RD-HGA16
Description: Antagonist activity at CB1-OX1 heterodimer (unknown origin) expressed in RD-HGA16 cells assessed as inhibition of orexin A-induced calcium mobilization by fluorometric imaging plate reader analysis

[3] = molecular target: T2, Cannabinoid CB1 receptor/orexin receptor 1 complex (Homo sapiens); conditions: RD-HGA16; remark: listed apart in the source
Description: Antagonist activity at CB1-OX1 heterodimer (unknown origin) expressed in RD-HGA16 cells assessed as inhibition of CP55940-induced calcium mobilization by fluorometric imaging plate reader analysis

[4] = molecular target: Cannabinoid receptor 1 (Homo sapiens) (UniProt P21554); conditions: RD-HGA16
Cannabinoid receptor 1 (Homo sapiens), sequence (P21554 whole entry): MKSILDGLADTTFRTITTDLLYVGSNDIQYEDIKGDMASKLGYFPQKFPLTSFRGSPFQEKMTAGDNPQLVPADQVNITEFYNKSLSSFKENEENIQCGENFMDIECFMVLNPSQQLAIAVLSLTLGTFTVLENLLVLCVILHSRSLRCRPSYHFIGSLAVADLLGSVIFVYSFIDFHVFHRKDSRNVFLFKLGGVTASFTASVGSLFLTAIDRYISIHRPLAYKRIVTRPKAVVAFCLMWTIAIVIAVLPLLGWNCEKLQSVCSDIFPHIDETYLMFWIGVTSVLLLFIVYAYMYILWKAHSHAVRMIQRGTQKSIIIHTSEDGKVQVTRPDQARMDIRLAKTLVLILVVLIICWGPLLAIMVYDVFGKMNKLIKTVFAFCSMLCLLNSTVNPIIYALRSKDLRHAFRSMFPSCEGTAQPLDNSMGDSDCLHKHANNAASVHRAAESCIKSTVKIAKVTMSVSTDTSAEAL
Description: Antagonist activity at CB1 receptor (unknown origin) expressed in RD-HGA16 cells assessed as inhibition of CP55940-induced calcium mobilization by fluorometric imaging plate reader analysis

Q: How did the Ke [1] turn out when `COc1ccc(CC2c3cc(OCCCCCCC(=O)NCCOCCOCCOCCNC(=O)c4nn(-c5ccc(Cl)cc5Cl)c(-c5ccc(Cl)cc5)c4C)c(OC)cc3CCN2CC(=O)NCc2ccccc2)cc1OC` (centres undefined) was run?
A: 8600 nM

Q: And the Ke [2]?
A: 580 nM

Q: And the Ke [3]?
A: > 10 µM

Q: And the Ke [4]?
A: 8000 nM

Q: `CCCCCCCNC(=O)[C@@H](c1ccccc1)N1CCc2cc(OC)c(OC)cc2C1Cc1ccc(OC)c(OC)c1` (some centres undefined) was tested. Which Ke [1] did it give?
A: 22 nM

Q: For `CCCCCCOc1cc2c(cc1OC)CCN(CC(=O)NCc1ccccc1)C2Cc1ccc(OC)c(OC)c1` (centres undefined), which Ke [1] is on record?
A: 310 nM

Q: How did the Ke [1] turn out when `COc1cc2c(cc1OC)C(Cc1ccc(OC(=O)CCCCCCN(C)CCCCCCCCCCNC(=O)c3nn(-c4ccc(Cl)cc4Cl)c(-c4ccc(Cl)cc4)c3C)c(OC)c1)N(CC(=O)NCc1ccccc1)CC2` (centres undefined) was run?
A: > 10000 nM

Q: What about the Ke [2] of the same molecule?
A: 110 nM

Q: What about the Ke [3] of the same molecule?
A: 5.9 µM

Q: And the Ke [4]?
A: 1800 nM

Q: `CCCC(=O)Oc1cc2c(cc1OC)CCN(CC(=O)NCc1ccccc1)C2Cc1ccc(OC)c(OC)c1` (centres undefined) was tested. Which Ke [1] did it give?
A: 78 nM

Q: For `COc1ccc(CC2c3cc(OC)c(OC)cc3CCN2CC(=O)NCc2ccccc2)cc1OC` (centres undefined), which Ke [1] is on record?
A: 200 nM

Q: How did the Ke [1] turn out when `CCCCCCOc1ccc(CC2c3cc(OC)c(OC)cc3CCN2CC(=O)NCc2ccccc2)cc1OC` (centres undefined) was run?
A: 120 nM

Q: Which results are given for `COc1ccc(CC2c3cc(OC(=O)CCCCCCN(C)CCCCOCCCCOCCCCOCCNC(=O)c4nn(-c5ccc(Cl)cc5Cl)c(-c5ccc(Cl)cc5)c4C)c(OC)cc3CCN2CC(=O)NCc2ccccc2)cc1OC` (centres undefined)?
A: Ke [1]: 3500 nM; Ke [2]: 420 nM; Ke [3]: 4.5 µM; Ke [4]: 1800 nM

Q: For `COc1ccc(CC2c3cc(OC)c(OC)cc3CCN2C(C(=O)NCCCCCCCN(C)CCCCCCCNC(=O)c2nn(-c3ccc(Cl)cc3Cl)c(-c3ccc(Cl)cc3)c2C)c2ccccc2)cc1OC` (centres undefined), which Ke [1] is on record?
A: 5500 nM

Q: And the Ke [2]?
A: 230 nM

Q: And the Ke [3]?
A: > 10 µM

Q: And the Ke [4]?
A: 3000 nM

Q: For `COc1cc2c(cc1OC)C(Cc1ccc(OC(=O)CCCCCCN(C)CCCCCCCCCCCCNC(=O)c3nn(-c4ccc(Cl)cc4Cl)c(-c4ccc(Cl)cc4)c3C)c(OC)c1)N(CC(=O)NCc1ccccc1)CC2` (centres undefined), which Ke [1] is on record?
A: > 10000 nM

Q: What about the Ke [2] of the same molecule?
A: 410 nM

Q: What about the Ke [3] of the same molecule?
A: > 10 µM

Q: What about the Ke [4] of the same molecule?
A: 1100 nM

Q: `CCCC(=O)Oc1ccc(CC2c3cc(OC)c(OC)cc3CCN2CC(=O)NCc2ccccc2)cc1OC` (centres undefined) was tested. Which Ke [1] did it give?
A: 43 nM

Q: With `COc1cc2c(cc1OC)C(Cc1ccc(OC(=O)CCCCCCN(C)CCCCCCCNC(=O)c3nn(-c4ccc(Cl)cc4Cl)c(-c4ccc(Cl)cc4)c3C)c(OC)c1)N(CC(=O)NCc1ccccc1)CC2` (centres undefined) as the molecule, how does the Ke [1] read?
A: 8460 nM

Q: What about the Ke [2] of the same molecule?
A: 610 nM

Q: What about the Ke [3] of the same molecule?
A: > 10 µM

Q: What about the Ke [4] of the same molecule?
A: 1800 nM

Q: Which Ke [1] does the source give for `Cc1nc2ccc(NC(=O)Nc3ccnc4cccnc34)cc2o1` here?
A: 45 nM

Q: And the Ke [2]?
A: > 10000 nM

Q: What about the Ke [3] of the same molecule?
A: 0.032 µM

Q: And the Ke [4]?
A: > 10000 nM

Q: Which Ke [1] does the source give for `COc1ccc(CC2c3cc(OC(=O)CCCCCCN(C)CCCCCCCNC(=O)c4nn(-c5ccc(Cl)cc5Cl)c(-c5ccc(Cl)cc5)c4C)c(OC)cc3CCN2CC(=O)NCc2ccccc2)cc1OC` (centres undefined) here?
A: 8800 nM

Q: And the Ke [2]?
A: 1200 nM

Q: What about the Ke [3] of the same molecule?
A: > 10 µM

Q: And the Ke [4]?
A: 2100 nM

Q: `CCCCCCCNC(=O)CN1CCc2cc(OC)c(OC)cc2C1Cc1ccc(OC)c(OC)c1` (centres undefined) was tested. Which Ke [1] did it give?
A: 590 nM
